Experimental data reported in patent publication US20100105688A1, “PHARMACEUTICAL COMPOSITIONS COMPRISING 3,5-DIAMINO-6-(2,3-DICHLOPHENYL)-1,2,4-TRIAZINE OR R(-)-2,4-DIAMINO-5-(2,3-DICHLOROPHENYL)-6-FLUOROMETHYL PYRIMIDINE AND AN NK1” (GLAXO GROUP LIMITED, priority 2007, published 2010).

Columns and labels:
Male CD rats = assay: Rat MEST model (seizure threshold, CC50); assay type: in vivo
Method: This work was conducted in compliance with the Home Office Guidance on the operation of the Animals (Scientific Procedures) Act 1986 and GlaxoSmithKline ethical standards. Male CD rats (100-145 g) were supplied by Charles River, UK. Animals were group housed (6 animal per cage) with free access to food (Standard rodent chow; Harlan, UK) and water under a 12 h light/dark cycle (lights on at 0700 h). A period of at least one week between arrival at GSK and the study was allowed in all cases.
Animals were administered a test compound at the appropriate dose, route and pre-treatment time and returned to their home cage. Testing occurred in a separate room from that used for housing. Testing involved determining the threshold for tonic hindlimb extensor seizures using a Hugo Sachs Electronik stimulator which delivers a constant current of 0.3 second duration, 50 Hz, sinewave form, fully adjustable between 1 and 300 mA. Stimuli were delivered via corneal electrodes (Stean T O, Atkins A R, Heidbreder C A, Quinn L P, Trail B K, Upton N. (2005) Br J. Pharmacol. 144(5):628-35). Seizure threshold was determined using the ‘up and down’ method of Kimball et al. (1957)(Kimball A W, Burnett W T Jr, Doherty D G. (1957) Radiat Res. 7(1):1-12). The first animal tested in each group was stimulated with a current that might be expected to be close to the threshold for induction of a seizure. If a tonic seizure was not induced, then next animal in the group received a stimulus 5 mA higher. If a tonic seizure was induced, then the next animal received a stimulus 5 mA lower. This is repeated for all animals within the control (vehicle) group. In the case of groups treated with a sodium channel blocker steps of 10 to 30 mA were used.
All doses were calculated as base. ENa9 and ENa13 were dosed via the subcutaneous (s.c.) route at 1 ml/kg in a 2% v/v DMSO/saline vehicle 30 minutes prior to test. ENa7 and ENa14 were dosed orally (p.o.) in a 1% w/v methylcellulose/water vehicle at 2 ml/kg, 60 minutes before test. Compound ENK6 was dosed with via the intraperitoneal (i.p.) route 60 minutes before the test or via the s.c. route 15 minutes before test. In both cases ENK6 was dissolved in saline.
Induction of seizure is measured as an all-or-nothing effect scored as either present (+) or absent (0) for each animal. The data for each treatment group were recorded as the number of +'s and 0's at each current level employed and this information was then used to calculate the CC50 value (current required for 50% of animals to show seizure behaviour)+standard error of the mean according to the method of Kimball et al. (1957). Drug effects were calculated as the % change in CC50. Significant differences between drug-treated animals and appropriate vehicle treated groups were assessed according to the methods of Litchfield and Wilcoxon (1949). The statistical significance of differences between sodium channel blocker alone or in combination with ENK6 was assessed using a Student's t test.

rats = assay: FCA (Freunds Complete Adjuvant) model of inflammatory hypersensitivity to pain (weight bearing); assay type: in vivo, rat
Method: • Naïve weight bearing readings were taken. The hypersensitivity to pain was measured using the Rat incapacitance tester (Linton instruments). This instrument is serviced once a year and should be regularly calibrated • All rats then received an intraplantar injection of 100 ul of FCA (Freund's complete adjuvant) into the left hind paw. The FCA was sonicated for 15 minutes prior to use. • Approximately 23 hrs after administration of the FCA, pre-dose weight bearing readings were taken. All animals were then ranked and randomised for dosing according to their FCA window (predose difference in grams−naïve difference in grams). […] Celebrex 10 mg/kg p.o. (positive control) as appropriate according to ranking and randomisation. • Animals were assessed in the weight bearing apparatus 1 hour post dose. • The study was blind and randomised by FCA window using the Latin square method. • % reversals were calculated by using the naïve, pre-dose and post dose values as follows: % Reversal=[(Pre-dose−Post-dose)/(Pre-dose−Naïve)]×100 • Graphs and ED50 were calculated where appropriate using Prism4. • Statistical analysis was carried out using ANOVA followed by calculating the least square means using the statistical package Statistica 6.1 • From the dose response curves the ED20 was determined for the combination study • Naïve weight bearing readings were taken. The hypersensitivity to pain was measured using the Rat incapacitance tester (Linton instruments). This instrument is serviced once a year and should be regularly calibrated • All rats then received an intraplantar injection of 100 ul of FCA (Freund's complete adjuvant) into the left hind paw. The FCA was sonicated for 15 minutes prior to use. • Approximately 23 hrs after administration of the FCA, pre-dose weight bearing readings were taken. All animals were then ranked and randomised for dosing according to their FCA window (predose difference in grams−naïve difference in grams). […] See table 5 for details of the groups • Animals were assessed in the weight bearing apparatus 1 hour post dose. • The study was blind and randomised by FCA window using the Latin square method. • % reversals were calculated by using the naïve, pre-dose and post dose values as follows: % Reversal=[(Pre-dose−Post-dose)/(Pre-dose−Naïve)]×100 • Statistical analysis was carried out using ANOVA followed by calculating the least square means using the statistical package Statistica 6.1 • ED50 and ED20 values and graphs were calculated using prism5 • Naïve weight bearing readings were taken. The hypersensitivity to pain was measured using the Rat incapacitance tester (Linton instruments). This instrument is serviced once a year and should be regularly calibrated • All rats then received an intraplantar injection of 100 ul of FCA (Freund's complete adjuvant) into the left hind paw. The FCA was sonicated for 15 minutes prior to use. • Approximately 23 hrs after administration of the FCA, pre-dose weight bearing readings were taken. All animals were then ranked and randomised for dosing according to their FCA window (predose difference in grams—naïve difference in grams). Rats with FCA window less than 30 g were excluded from the study. • Animals were then dosed with the following in a fixed dose ratio of 1.25:1 according to ranking and randomisation. (Table 6) […] Graphs and ED50 were calculated where appropriate using Prism5 • Statistical analysis was carried out using ANOVA followed by calculating the least square means using the statistical package Statistica 6.1

## Nc1nnc(-c2cccc(Cl)c2Cl)c(N)n1 [ENa7, 3,5-diamino-6-(2,3-dichlorophenyl)-1,2,4-triazine, reference compound]
Male CD rats; sodium channel blocker 1 mg/kg p.o. in the presence of ENK6 10 mg/kg s.c. (first experiment)
  increase in CC50 (mA): 61%
Male CD rats; sodium channel blocker 1 mg/kg p.o. in the presence of ENK6 30 mg/kg s.c.
  increase in CC50 (mA): 145%
Male CD rats; sodium channel blocker 3 mg/kg p.o. in the presence of ENK6 30 mg/kg s.c. (second experiment)
  increase in CC50 (mA): 233%
Male CD rats; sodium channel blocker alone, 1 mg/kg p.o., 60 minutes before the test
  effect on seizure threshold: little or no increase in seizure threshold
Male CD rats; sodium channel blocker alone, 3 mg/kg p.o., 60 minutes before the test, two independent experiments
  increase in seizure threshold: 128-205%
rats; Rattus norvegicus, po, compound alone, 0.1-3.0 mg/kg p.o. as printed, 1 hour post dose, range in brackets as printed, read-out: ED50, reversal of the FCA induced hypersensitivity
  ED50: 0.35 mg/kg
rats; compound alone, 0.1-3.0 mg/kg, 1 hour post dose
  reversal of the FCA induced hypersensitivity: dose related reversal
rats; each compound alone at its ED20 dose (ENa7 0.1 mg/kg p.o.; ENK6 0.08 mg/kg s.c.)
  effect on the FCA induced hypersensitivity: no significant effect
